Test [1] deals with Kir6.2 channel deficient mice. As to the kind of experiment: Cognitive function tests and LTP in Kir6.2 channel deficient mice. It counts as in vivo. To be noted: chronic treatment (two months). From the text:
To confirm that TP-014 action is Kir6.2 channel inhibitory action, the action site of TP-014 was identified by the same behavioral experiment as in FIG. 4 (FIG. 8a and FIG. 8b: Y-maze test, FIG. 8c: new object recognition test method, FIG. 8d: fear conditioning test method, FIG. 8e to FIG. 8g: LTP improvement evaluation, n=5 per group) using Kir6.2 channel deficient mice. It was confirmed that cognitive dysfunction is induced in Kir6.2 defective mice. […] It was also shown that memory disturbance and LTP attenuation of Kir6.2 defective mice are not improved by TP-014 chronic treatment (two months). […] The analytical methods are the same as in Test Examples 4 to 7. Note that, Kir6.2 defective mice were obtained from Professor Susumu Seino, School of Medicine of Kobe University (Miki T et al., Proc. Natl. Acad. Sci. U.S.A. 1998, 95, 10402-10406).

In test [2] the test system is Kir6.1 defective mice administered with corticosterone. As to the kind of experiment: Anxiety-related behavioral tests in Kir6.1 defective mice administered with corticosterone. To be noted: Kir6.1 defective mice + corticosterone; TP-014 1 mg/kg oral once a day for 2 weeks. Format: in vivo. How it is done:
Using WT mice (C57BL/6J, Japan SLC, two months old) administered with corticosterone (dose of 5 mg/kg was administered once a day for 2 weeks); and Kir6.1 defective mice administered with corticosterone, as disease model mice showing anxiety-like symptoms, five behavioral tests regarding anxiety-related behavior were conducted. Note that, the Kir6.1 defective mice were obtained from Professor Susumu Seino, School of Medicine of Kobe University (Miki T et al., Nature Medicine 2002, 8, 466-472).
To the WT mice and Kir6.1 defective mice administered with corticosterone, TP-014 (1 mg/kg) was administered via the oral route once a day for 2 weeks (chronic treatment). As a result, it was confirmed that a significant anxiety symptom acceleration improving effect was obtained. […]
The time until a mouse placed in a black box (dark place) feels anxiety to light and comes out of the box to a bright place) was measured. […]
In the cage for housing a mouse is filled with wood chip bedding and 20 marbles are placed such that a mouse can see them. […] The number of marbles buried and hidden in the wood chip bedding is counted. […]
Using the same test apparatus as in the light/dark test method, a mouse is placed in a dark place, and then, sound (treble) is produced for 30 seconds and thereafter electrical stimulation is given for 3 seconds. […] The immobility time of the mouse is measured. […]

Test [3] addresses T1, Kir6.1 channel (Mus musculus, UniProt P97794).
T1 construct: expressed in transfected cells; host or cells: Neuro2A (N2A) cells, transient transfection with pcDNA3.1-Kir6.1 (gift of Prof. Toru Ishizuka, Tohoku University)
T1 sequence (P97794 1-424): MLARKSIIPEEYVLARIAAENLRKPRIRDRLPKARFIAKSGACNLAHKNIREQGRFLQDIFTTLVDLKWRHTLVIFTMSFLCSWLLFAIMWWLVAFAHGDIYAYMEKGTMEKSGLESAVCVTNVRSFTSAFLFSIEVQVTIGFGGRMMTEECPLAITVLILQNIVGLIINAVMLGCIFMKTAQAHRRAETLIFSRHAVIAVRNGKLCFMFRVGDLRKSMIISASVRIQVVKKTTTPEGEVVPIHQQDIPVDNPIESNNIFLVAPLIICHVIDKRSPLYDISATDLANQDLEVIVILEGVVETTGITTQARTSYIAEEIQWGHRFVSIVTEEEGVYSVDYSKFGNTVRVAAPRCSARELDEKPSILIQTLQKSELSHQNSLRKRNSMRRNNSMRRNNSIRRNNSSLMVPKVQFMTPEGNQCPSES
Put plainly: Patch-clamp measurement of outward potassium current in Kir6.1 channel-overexpressing cells. To be noted: 10 nM TP-014, Test Example 15 (Kir6.1 channel). Format: cell-based. How it is done: A plasmid vector having cDNA of Kir6.1 channel inserted therein: pcDNA3.1-Kir6.1, was obtained from professor Toru Ishizuka of Graduate School of Life Sciences, Tohoku University. N2A cells overexpressing Kir6.1 channel were obtained in the same manner as in “preparation of N2A cells overexpressing Kir6.2 channel” of Test Example 1 except that the above plasmid was used.
Using Kir6.1 channel-overexpressing cells obtained, potassium current flowing outside from cells was measured by the ordinary patch-clamp method. ATP-sensitive potassium channel (Kir6.1 channel) was localized in the cell membrane of the nerve cells. If the channel is inhibited and clogged, the threshold of the nerve cell membrane rises to produce the analogous state as where an action potential is temporarily generated, with the result that potassium current flows out from cells outside and, in place, calcium current flows into the cells from outside. […] This was confirmed by applying immunoblotting (the same conditions as in Test Example 1 were employed except that anti-Kir6.1 channel antibody, n=5) with an anti-Kir6.1 channel antibody (prepared based on an ordinary method) to Kir6.1 channel-overexpressing cells (prepared by the aforementioned method).
Background: Patch clamp records ionic current or voltage across a cell membrane.

Test [4] concerns OBX mice. As to the kind of experiment: Depression-like symptom: tail-suspension method and forced swim method in OBX mice. It counts as in vivo. To be noted: chronic administration 2 weeks. The procedure:
OBX mice were originally established as depression model mice although a deterioration of cognitive function was observed. Depression was analyzed by a tail-suspension method (a) and a forced swim method (b). The tail-suspension method is a method of pinching the tail of a mouse and hanging the mouse upside down. If the mouse hung has depression, immobility time is long. Since a normal mouse moves even if it is hung, the immobility time is short. In the forced swim method, a mouse is forced to swim in water in a beaker. A mouse having depression neither swims nor moves (just floating). Thus the immobility time is measured. Immobility time was long in OBX mice both in the tail-suspension method (a) and the forced swim method (b). The immobility time of a TP-014 chronic administration group (2 weeks, in the same administration method as that previously mentioned) was improved.

The test system of test [5] is olfactory bulbectomized mice (OBX mice). As to the kind of experiment: Cognitive function tests (Y-maze, new object recognition, fear conditioning, LTP) in olfactory bulbectomized mice. It counts as in vivo. To be noted: chronic administration (2 weeks).

Structures are written as SMILES.

With `O=C(N[C@@H](c1ccccc1)[C@H]1[C@H]2C[C@@H]3C[C@](Cl)(C2)C[C@@]1(OC(=O)C(F)(F)F)C3)C(F)(F)F` [TP-014, (1S,2R,3S,5S,7S)-5-chloro-2-((R)-phenyl(2,2,2-trifluoroacetamido)methyl)adamantan-1-yl 2,2,2-trifluoroacetate], in test [1], the “memory disturbance and LTP attenuation of Kir6.2 defective mice” value is listed as “not improved”. Besides, the anxiety-like symptoms entry in test [2] was “no improvement effect”. Further, in test [3], the outward potassium current entry was “suppressed”. The “immobility time (tail-suspension method and forced swim method)” value in test [4] is “improved”. Further, the “cognitive dysfunction of OBX mice” value in test [5] is reported as “significantly improved”.

For the origin of these results see patent US10487045B2, “Adamantane derivative and use thereof” (TOHOKU UNIVERSITY, priority 2016, dated 2019).
